# Reference: the supplement of paper PMC10307832
# Legend:
# Assay in all cases: relative viability (nuclei count vs DMSO), 5 days (fraction); higher = more cells survive
# Dovitinib + Navitoclax = compound: CN1CCN(c2ccc3nc(-c4c(N)c5c(F)cccc5[nH]c4=O)[nH]c3c2)CC1 [Dovitinib] + CC1(C)CCC(c2ccc(Cl)cc2)=C(CN2CCN(c3ccc(C(=O)NS(=O)(=O)c4ccc(N[C@H](CCN5CCOCC5)CSc5ccccc5)c(S(=O)(=O)C(F)(F)F)c4)cc3)CC2)C1 [Navitoclax] (partner 0.5 µM)
# How it was run: (§1)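 One day after seeding in 1536-well plates, lung cancer cell lines were dosed by pin tool. Dosing was either single-drug or a fixed anchor-drug dose plus five library-drug doses (not always all listed) in √10 steps. After 5 days, nuclei were stained in one fix-and-stain step and counted on 4× images, and relative viability is the nuclei count of treated wells over that of vehicle wells, given as the median of duplicate plates.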
# Dovitinib + Linsitinib = compound: CN1CCN(c2ccc3nc(-c4c(N)c5c(F)cccc5[nH]c4=O)[nH]c3c2)CC1 [Dovitinib] + C[C@]1(O)C[C@@H](c2nc(-c3ccc4ccc(-c5ccccc5)nc4c3)c3c(N)nccn32)C1 [Linsitinib] (partner 1 µM)
# How it was run: as §1
# Dovitinib + Alpelisib = compound: CN1CCN(c2ccc3nc(-c4c(N)c5c(F)cccc5[nH]c4=O)[nH]c3c2)CC1 [Dovitinib] + Cc1nc(NC(=O)N2CCC[C@H]2C(N)=O)sc1-c1ccnc(C(C)(C)C(F)(F)F)c1 [Alpelisib] (partner 2 µM)
# How it was run: as §1
# Dovitinib + Vorinostat = compound: CN1CCN(c2ccc3nc(-c4c(N)c5c(F)cccc5[nH]c4=O)[nH]c3c2)CC1 [Dovitinib] + O=C(CCCCCCC(=O)Nc1ccccc1)NO [Vorinostat] (partner 1 µM)
# How it was run: as §1
Cell Line,relative viability (Dovitinib + Navitoclax; first compound 0.02 µM),relative viability (Dovitinib + Navitoclax; first compound 0.06325 µM),relative viability (Dovitinib + Navitoclax; first compound 0.2 µM),relative viability (Dovitinib + Navitoclax; first compound 0.6325 µM),relative viability (Dovitinib + Navitoclax; first compound 2 µM),relative viability (Dovitinib + Linsitinib; first compound 0.02 µM),relative viability (Dovitinib + Linsitinib; first compound 0.06325 µM),relative viability (Dovitinib + Linsitinib; first compound 0.2 µM),relative viability (Dovitinib + Linsitinib; first compound 0.6325 µM),relative viability (Dovitinib + Linsitinib; first compound 2 µM),relative viability (Dovitinib + Alpelisib; first compound 0.02 µM),relative viability (Dovitinib + Alpelisib; first compound 0.06325 µM),relative viability (Dovitinib + Alpelisib; first compound 0.2 µM),relative viability (Dovitinib + Alpelisib; first compound 0.6325 µM),relative viability (Dovitinib + Alpelisib; first compound 2 µM),relative viability (Dovitinib + Vorinostat; first compound 0.02 µM),relative viability (Dovitinib + Vorinostat; first compound 0.06325 µM),relative viability (Dovitinib + Vorinostat; first compound 0.2 µM),relative viability (Dovitinib + Vorinostat; first compound 0.6325 µM),relative viability (Dovitinib + Vorinostat; first compound 2 µM)
LCLC-97TM1,0.368,0.384,0.339,0.403,0.478,0.216,0.21,0.201,0.152,0.213,0.222,0.23,0.171,0.247,0.276,0.719,0.612,0.734,0.688,0.751
HARA,1.16,1.16,1.12,1.15,1.15,1,0.943,0.924,0.968,0.859,0.791,0.908,0.778,0.853,0.705,0.553,0.542,0.645,0.676,0.569
HCC-78,0.784,,0.827,0.754,0.772,0.693,,0.626,0.478,0.532,0.422,,0.384,0.364,0.316,0.413,0.415,0.39,0.533,0.431
NCI-H1666,0.835,0.966,0.887,0.901,1.03,0.793,0.687,0.859,0.764,0.896,1.01,0.933,1.02,0.883,1.07,1.15,0.919,1.11,1.04,1.05
NCI-H2347,0.892,0.812,0.86,0.707,0.932,0.997,0.892,0.953,0.978,0.969,1.11,0.988,1.08,1.09,1.09,0.694,0.647,0.561,0.692,0.686
NCI-H838,1.11,1.19,1.17,1.22,1.11,0.97,1.05,0.999,1.01,0.977,0.949,1.04,1.01,0.936,0.938,0.711,0.742,0.706,0.716,0.677
NCI-H2023,0.996,1.03,1.04,0.945,0.929,0.744,0.638,0.734,0.741,0.595,0.558,0.574,0.606,0.57,0.523,0.532,0.745,0.818,0.683,0.579
201T,1.12,1.21,,1.22,1.21,0.988,0.944,,0.945,0.995,0.979,0.975,,1.01,0.996,0.862,0.957,0.908,0.947,0.949
NCI-H1915,0.797,0.749,0.767,0.752,0.801,1.09,1.09,1.08,1.09,1.05,0.992,1.04,1.06,0.983,1.04,0.469,0.502,0.531,0.499,0.531
NCI-H2009,1.14,1.15,1.2,1.19,1.19,1.16,1.18,1.15,1.2,1.2,1.07,1.16,1.06,1.14,1.14,0.72,0.744,0.747,0.736,0.829
BEN,0.0734,0.0569,0.0676,0.0923,0.0738,0.874,0.873,1.07,0.922,0.898,0.981,0.828,0.988,0.954,0.936,0.551,0.542,0.578,0.598,0.57
PC-14,0.998,1.08,1,0.988,0.939,1.03,0.954,0.969,0.996,0.928,0.805,1.03,0.966,0.946,0.883,0.771,0.938,0.778,0.694,0.757
SK-MES-1,1.24,1.21,1.16,1.31,1.27,1.09,1.02,1.09,1.15,1.07,0.852,0.89,0.907,0.936,0.971,1.08,1.13,1.17,1.09,1.12
NCI-H727,0.497,0.491,0.421,0.468,0.414,0.271,0.325,0.314,0.298,0.408,0.673,0.642,0.476,0.48,0.47,1.19,1.12,1.25,1.39,1.25
NCI-H1355,0.917,0.958,1.04,0.985,1.08,0.821,0.886,0.856,0.801,0.812,0.797,0.796,0.864,0.764,0.82,0.671,0.638,0.628,0.695,0.704
NCI-H1975,1.07,1.01,1.09,1,1.2,0.903,0.954,0.915,0.934,1.09,0.625,0.685,0.603,0.604,0.547,0.692,0.728,0.662,0.734,0.682
LK-2,0.995,0.896,0.876,0.766,0.767,0.688,0.604,0.484,0.608,0.565,1.22,1.06,0.974,0.959,0.628,0.262,0.403,0.373,0.373,0.364
NCI-H661,,,,,,0.537,0.547,0.618,0.613,0.654,0.706,0.661,0.885,0.898,0.573,0.733,0.837,0.826,0.938,0.843
HCC-366,1.07,1.16,1.02,1.08,0.971,0.645,0.584,0.549,0.665,0.592,0.545,0.393,0.478,0.505,0.446,0.325,0.353,0.338,0.429,0.385

Cell Line,relative viability (Dovitinib + Navitoclax; first compound 0.02 µM),relative viability (Dovitinib + Navitoclax; first compound 0.06325 µM),relative viability (Dovitinib + Navitoclax; first compound 0.2 µM),relative viability (Dovitinib + Navitoclax; first compound 0.6325 µM),relative viability (Dovitinib + Navitoclax; first compound 2 µM),relative viability (Dovitinib + Linsitinib; first compound 0.02 µM),relative viability (Dovitinib + Linsitinib; first compound 0.06325 µM),relative viability (Dovitinib + Linsitinib; first compound 0.2 µM),relative viability (Dovitinib + Linsitinib; first compound 0.6325 µM),relative viability (Dovitinib + Linsitinib; first compound 2 µM),relative viability (Dovitinib + Alpelisib; first compound 0.02 µM),relative viability (Dovitinib + Alpelisib; first compound 0.06325 µM),relative viability (Dovitinib + Alpelisib; first compound 0.2 µM),relative viability (Dovitinib + Alpelisib; first compound 0.6325 µM),relative viability (Dovitinib + Alpelisib; first compound 2 µM),relative viability (Dovitinib + Vorinostat; first compound 0.02 µM),relative viability (Dovitinib + Vorinostat; first compound 0.06325 µM),relative viability (Dovitinib + Vorinostat; first compound 0.2 µM),relative viability (Dovitinib + Vorinostat; first compound 0.6325 µM),relative viability (Dovitinib + Vorinostat; first compound 2 µM)
HOP-62,0.95,0.995,1.01,1.1,1.08,0.784,0.852,1.1,0.921,1.03,0.804,0.844,1.27,0.896,0.829,0.469,0.469,0.588,0.667,0.797
NCI-H1944,1.01,0.995,1.02,1.08,1.1,1.14,1.18,1.15,1.22,1.18,0.822,0.846,0.809,0.777,0.858,0.502,0.702,0.646,0.583,0.64
SW 1573,1.03,0.934,1.02,0.97,1,0.798,0.795,0.749,0.766,0.864,0.785,0.798,0.703,0.657,0.753,0.65,0.908,0.6,0.702,1.02
EBC-1,0.475,0.38,0.421,0.384,0.55,0.855,0.861,0.85,0.884,0.912,0.951,0.781,0.925,0.73,0.708,,,,,
NCI-H1648,,,,,,,,,,,,,,,,0.402,0.422,0.425,0.361,0.516
SW 900,,,,,,,,,,,,,,,,0.699,0.402,0.518,0.616,0.493
ABC-1,,,,,,0.848,0.865,0.842,1.02,0.618,0.994,0.947,0.967,0.564,0.823,1.14,1.12,1.07,1.18,1.18
NCI-H1792,0.671,0.637,0.62,0.751,0.588,0.621,0.44,0.602,0.598,0.522,0.674,0.617,0.745,0.725,0.676,,,,,
NCI-H1563,,,,,,1.28,1.17,1.14,1.21,1.2,0.943,0.893,1.06,0.908,0.902,,,,,
NCI-H1299,1.01,1.04,1.09,1.05,1.08,0.913,0.954,0.959,0.951,0.976,0.984,1.02,1.02,1.04,1.09,,,,,
ChaGo-K-1,1.01,0.976,0.975,1.14,1.18,,,,,,,,,,,0.739,0.814,0.758,0.766,0.706
NCI-H2170,0.58,0.63,0.756,0.531,0.612,,,,,,0.672,0.807,0.889,0.77,0.83,0.752,0.783,0.819,0.839,0.783
NCI-H522,,,,,,,,,,,,,,,,0.811,0.848,0.923,0.837,1.01
A549,1.21,1.11,1.24,1.19,1.14,0.654,0.573,0.651,0.586,0.632,0.802,0.757,0.701,0.801,0.671,,,,,
NCI-H358,,,,,,0.743,0.656,0.826,0.66,0.854,0.941,0.905,0.849,0.84,0.804,0.673,0.808,0.738,0.619,0.639
NCI-H650,,,,,,0.953,0.675,0.839,0.95,1.01,1.13,0.972,1.07,0.997,1.2,0.368,0.414,0.58,0.395,0.774
LCLC-103H,,,,,,1.09,0.988,1.03,1.08,1.04,0.875,0.973,0.918,1.06,0.761,0.731,0.746,0.756,0.872,0.8
NCI-H1650,1.12,1.2,1.25,1.05,1.08,,,,,,,,,,,0.569,0.432,0.785,0.703,0.554
Calu-6,0.828,0.784,0.828,0.813,0.782,0.947,0.955,0.935,0.93,0.887,0.943,0.97,0.872,0.925,1.01,,,,,
